Data from patent US20090221559A1 (priority 2005, published 2009).

Columns and labels:
[1] = biological target: T1, HCV NS5B polymerase (His-tagged, C-terminal 21 amino acid deleted NS5B, HC-J4) (Hepatitis C virus genotype 1b, UniProt O92972); assay: NS5b polymerase assay (biochemical RdRp assay, 3H-GTP incorporation, SPA beads); parameters: species or system HCV genotype 1b; conditions: NS5B Polymerase Assay IC50, 200 nM enzyme, 3H-GTP incorporation, 2 h at 25° C.
T1 construct: The cDNA encoding NS5B amino acid 1-570 (HC-J4, genotype 1b); His tag (His6, from pET-21b) (C); made in house; host or cells: E. coli BL21 (DE3)
How it was run: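 3H-GTP incorporation into newly made RNA was captured on SPA beads added in EDTA after 2 h at 25 °C. Compounds in DMSO met preformed enzyme–template complex (200 nM truncated His-NS5B, HC-J4 1b; biotin-oligo(rG13)/poly(rC)) for 15 min at RT, then 600 nM GTP, 5 mM MgCl2, Tris pH 7.5 started polymerization.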

[2] = system: HCV replicon RNA replication in Huh-7 luc/neo (Huh-Luc) cells; assay: HCV replicon assay (stable replicon cell reporter assay, luciferase read-out); assay type: cell-based, HCV type 1b; conditions: Hepatitis C virus, Huh-7, 72 h, read-out: Replicon Assay EC50, Huh-Luc cells, three days incubation, luciferase activity
How it was run: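 Three-day compound exposure used Huh-Luc cells, which harbour an autonomously replicating genotype 1b NS3-NS5B replicon expressing luciferase and neo^R. Luciferase signal served as the replication read-out, and dose-response curves came from several concentrations per compound.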

T1 sequence (O92972 2417-3000, looked up, stated change not applied): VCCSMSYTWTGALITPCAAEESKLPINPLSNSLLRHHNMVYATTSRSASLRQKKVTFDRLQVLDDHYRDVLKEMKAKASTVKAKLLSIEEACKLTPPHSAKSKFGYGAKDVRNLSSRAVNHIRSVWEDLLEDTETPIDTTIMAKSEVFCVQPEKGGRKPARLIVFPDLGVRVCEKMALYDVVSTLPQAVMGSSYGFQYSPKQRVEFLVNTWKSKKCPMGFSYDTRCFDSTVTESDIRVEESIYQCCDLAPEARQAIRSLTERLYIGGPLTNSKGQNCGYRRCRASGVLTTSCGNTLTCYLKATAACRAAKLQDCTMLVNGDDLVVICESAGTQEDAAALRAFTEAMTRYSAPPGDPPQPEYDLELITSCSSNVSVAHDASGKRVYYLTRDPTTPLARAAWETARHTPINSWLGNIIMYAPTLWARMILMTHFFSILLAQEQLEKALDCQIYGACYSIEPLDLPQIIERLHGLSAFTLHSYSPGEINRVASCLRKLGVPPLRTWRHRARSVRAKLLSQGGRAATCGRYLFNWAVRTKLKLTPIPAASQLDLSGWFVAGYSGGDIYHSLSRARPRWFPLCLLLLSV

Row | SMILES | melting point | IC50 [1] | EC50 [2]
1 | CC(=O)N1c2ccccc2NC2=C(C(=O)CC(C)(C)C2)C1c1ccc(C(F)(F)F)cc1 (stereo not drawn) [compound 120] | > 250 °C | > 133 µM | 31.8 µM
2 | CC1(C)CC(=O)C2=C(C1)Nc1ccccc1N(C(=O)CCc1ccccc1)C2c1ccc(Cl)cc1Cl (stereo not drawn) [compound 152] | 242 °C | 24.1 µM | 2.5 µM
3 | CC(=O)N1c2ccccc2NC2=C(C(=O)CC(C)(C)C2)C1c1ccc(OCc2ccccc2)c(Cl)c1 (single isomer, unassigned) [compound 304, 10-acetyl-11-[4-benzyloxy-3-chlorophenyl]-3,3-dimethyl-2,3,4,5,10,11-hexahydro-1H-dibenzo[b,e][1,4]diazepin-1-one] | 130 °C | 0.46 µM | 7.59 µM
